Assay results reported in article PMC11503492, “Activity-Based DNA-Encoded Library Screening for Selective Inhibitors of Eukaryotic Translation” (ACS Central Science, 2024).
Entries after “also recorded” stand apart in the source; their conditions may differ.

How the values were obtained:
[1] = test system: RPL27[1:32]-GFP translation; assay: WG IVTT activity assay, RPL27[1:32]-GFP template; assay type: biochemical, wheat germ
From the text: A commercially available wheat germ lysate (WG) IVTT system was employed to assay translation inhibition. Translation activity was detected via a GFP reporter, and the assay was miniaturized to picoliter-scale microfluidic droplets (Figure 1A,B). […] PCSK9 and RPL27 were truncated to the first 33 and 32 amino acids, respectively (PCSK9[1:33] and RPL27[1:32]). The sequences contain distinct PF846 stall sites and were both fused to a GFP reporter. The GFP reporter and a frameshift mutant of PCSK9[1:33] (PCSK9-FS[1:33]), which mutates the nascent chain sequence while maintaining a nearly identical mRNA sequence, were included as negative controls.[13] […] The WG IVTT assay was miniaturized using a previously described microfluidic circuit modified for longer incubation times (Figure S1)[27] using PF846 as a positive control compound, and assay statistical quality was calculated (Z′=0.7) (Figure 1E). […] Assay statistical quality using PC-HygB positive control beads was similarly calculated (Z′ = 0.75, Figure 1H). […]
429 of encoding region identifiers was then determined using a UMI aggregation algorithm; […]
433 manually determined threshold (10) were discarded. […]
440 progress was immediately monitored (λex = 480 nm, λem = 530 nm, 27 °C, 2 h). […]
441 tive activity was calculated using the slope of fluorescence increase over time (at 15–30 […]
Figure S11. […] Compound 8 (black) and PF846 (gray) were analyzed […]

[2] = test system: PCSK9 expression in HepG2 cells; assay: HepG2 cellular assay, PCSK9 Western blot; assay type: cell-based; conditions: 16 h treatment, 5 or 50 µM, triplicate, normalized to DMSO
Description: Reaction buffer (1 µL) and template (0.5 µL) were added and reaction progress was
Relative activity was cal-
450 culated using the slope of fluorescence increase over time (15–30 min post reaction initia-
Gene blocks were purchased from IDT
Digestion with Sgf I and PmeI allowed for
Sequence-verified plasmids
460 were cloned into DH5α E. coli for standard large-scale DNA plasmid preparation.
Gene blocks were purchased
Digestion with NdeI and XhoI
470 (4.5 g/L high-glucose DMEM, 2 mM L-glutamine, 10% fetal bovine serum, 1% penicillin-
Cells were lysed (100 µL RIPA buffer,
Protein lysates (24 µg) were separated by denaturing polyacrylamide
480 PCSK9 rabbit monoclonal antibody, 5% BSA in PBS-T). The PCSK9 probed membrane
HRP-labeled bands were visualized
Figure S12. […] PCSK9 expression in HepG2 cells
treated 16 h with PF846 or screening hit 8 (5 or 50 µM) or vehicle control (DMSO) was analyzed in triplicate
(also on this page, place not known: S12894 GAPDH pro m DMSO 5 μM DMSO μM 5 μM 50 μM PCSK9 PF846 hit8 50)
(§1) (1 picture or pasted object on this page, not shown here)

[3] = test system: PCSK9[1:33]-GFP in vitro transcription; assay: PCSK9[1:33]-GFP T7 in vitro transcription reaction, agarose gel; assay type: biochemical; conditions: PCSK9[1:33]-GFP T7 transcription, 1.5% agarose gel
Description: Figure S10. Activity of compounds 8 and 9 on transcription. (A) Screening hits 8 and 9 were analyzed in dose-response IVTT activity assays of PCSK9[1:33]-GFP initiated with DNA (black) and RNA (gray) template. (B) Products of PCSK9[1:33]-GFP T7 transcription reactions incubated with DMSO, screening hits 8 and 9, or PF846 were visualized on a 1.5% agarose gel
as §1

Structure (SMILES)	activity on RPL27[1:32]-GFP translation (in words) [1]	PCSK9 protein levels in HepG2 cells (in words) [2]	effect on in vitro transcription product (in words) [3]
Cc1cccc2ccnc(N(C(=O)[C@H]3CCCN(C(=O)c4cccc5c(C#N)c[nH]c45)C3)[C@@H]3CCCNC3)c12 [Compound 8]	most active	significantly reduced; also recorded: lower levels of endogenous PCSK9	
Cc1cccc2ccnc(N(C(=O)C3CCN(C(=O)c4cccc5c(C#N)c[nH]c45)CC3)[C@@H]3CCCNC3)c12 [Compound 9]			no visible transcript product; also recorded: completely eliminates RNA yield; also recorded: nonselectively inhibits transcription
